Results reported in patent US20180193209A1, “A POLYMER PRODUCT AND PREPARATION THEROF” (SINGAPORE HEALTH SERVICES PTE LTD., priority 2015, published 2018).

Test system: Human dermal fibroblast cells
Assay: MTS-based cell viability assay on fiber mats
Conditions: 24 hours culture
Procedure: Human dermal fibroblast cells were cultured according to the procedures recited in Biomacromolecules, 2005, 6 (5), pp 2583-2589. Briefly, cells were cultured in DMEM medium (Gibco®) supplemented with 10% (v/v) fetal bovine serum, 50 U/ml penicillin and 50 μg/ml streptomycin in a humidified incubator at 37° C. and 5% CO2. All the cell culture reagents were obtained from Life Technologies Corporation (Singapore). For biocompatibility experiments, cells were seeded onto the coverslips precoated with scaffolds and placed at the bottom of the 12-well plates (Nunc®) at a density of 10×10^4 cells/well and allowed to grow for 24 hours before analysis. For the negative control well(s), nocodazole was added to a final concentration of 5 μg/mL in the culture medium.
Cell viability was determined using CellTier 96® Aqueous One solution cell proliferation assay kit according to the manufacturer's instruction (Promega Corporation, Madison, Wis.), and according to the procedures recited in Kim B J et al., Reinforced multifunctionalized nanofibrous scaffolds using mussel adhesive proteins, Angew Chem Int Ed Eng, 2012; 51:675-8. This assay evaluates mitochondrial function by measuring the ability of viable cells to reduce MTS ((3-(4,5-dimethylthiazol-2-yl)-5-(3-carboxymethoxyphenyl)-2-(4-sulfophenyl)-2H-tetrazolium)) into a quantifiable […] formazon product. […]

With `COC(=O)Nc1nc2ccc(C(=O)c3cccs3)cc2[nH]1` [nocodazole] the “effect on cell viability (MTS)” value was “significant cell death”.
